According to patent publication US20130338115A1, “USE OF MITOCHONDRIALLY-ADDRESSED COMPOUNDS FOR PREVENTING AND TREATING CARDIOVASCULAR DISEASES” (Mitotech SA, priority 2007, published 2013):

Columns and labels:
Wistar male rats = experiment: Regional myocardial ischemia and reperfusion in anesthetized rats; assay type: in vivo, rat
Protocol: To study a possibility of reduction of the irreversible damage of cardiomyocytes by SkQ1 in vivo a model of regional myocardial ischemia and reperfusion in anesthetized rats was used. Experiments were performed on Wistar male rats weighing 300-450 grams, fed a standard diet. In the control animals during three weeks received NaBr dissolved in 0.1 M phosphate buffer (pH 6.0), at a dose of 250 nmol/kg body weight/day. Animals of the experimental group during three weeks together with food received SkQ1 dissolved in 0.1 M phosphate buffer (pH 6.0), at a dose of 250 nmol/kg body weight/day.
In urethane-anesthetized animals ([…] body weight intraperitoneally administered), artificial ventilation of the lungs with room air with added oxygen at a rate of 60-80 beats per minute was carried out. Indicators of the acid-base balance of arterial blood (pH, pO2 and pCO2) during the entire experiment were controlled with the use of acid-base gas analyzer ABL-30 (Radiometer) and maintained at a physiological level.
Catheterization of the carotid artery was performed for recording arterial pressure (Mingograf 804, Siemens-Elema). The chest was opened by longitudinal dissection of the sternum and the heart was freed from the pericardium. To induce regional myocardial ischemia, the left ventricle was pierced with an atraumatic needle 5-0 under the left appendage in the direction perpendicular to long axis of the heart. Tightening the ligature at the anterior descending coronary artery (ADA) located deep in the pierced myocardium ceased blood supply to a portion of the myocardium, weakening of the ligature restored coronary flow.
The dissection is followed by a 30-min period of stabilization of hemodynamic parameters (the initial state). Then anterior descending coronary artery was occluded for 40 min followed by 60 min of reperfusion. At the end of the experiment, to identify the risk zone (RZ) and the intact zone, anterior descending coronary artery was occluded and a 2% Evans solution (2 ml) was injected as a bolus into the jugular vein. Then the heart was cut out and the left ventricle (LV) was separated and frozen at −20° C.
To measure infarct size, the method for histochemical localization of the risk zone (RZ) and myocardial infarction (MI) by tissue staining with 2,3,5-triphenyltetrazolium chloride (TFT) was used (Kitakaze M., Takashima S., Funaya H., Minamino T., Node K., Shinozaki Y., Mori H., Hori M., 1997. Temporary acidosis during reperfusion limits myocardial infarct size. Am. J. Physiol.; 272: H2071-H207). […] The obtained samples were scanned, MI and RZ sizes were determined by the method of computer-assisted planimetry using the Imagecal program. […]

[1] = test system: isolated hearts of Wistar rats; experiment: H2O2-induced development of arrhythmias in isolated rat hearts after 3 weeks oral SkQ1; assay type: in vivo; settings: for normal rhythm maintained, % of the experiments: hydrogen peroxide 100 μm into coronary bed
Protocol: Wistar rats received preparation SkQ1 daily for 3 weeks at doses of 2.0, 0.2 and 0.02 nmol/kg body weight by its addition to the curd. In the control group of animals, the feed was supplemented with sodium bromate in a similar dose. Experiments on isolated hearts were performed 1-2 days after the end of administration of the preparations by a standard technique under conditions of retrograde perfusion of the heart with a controlled rate of perfusion and a measurement of spontaneous heart rate. The effect of SkQ1 on the incidence of arrhythmias induced by injection of hydrogen peroxide (100 μm) into the coronary bed of hearts was studied. This model reproduces some features of a situation of oxidative stress that develops during reperfusion of ischemic heart.

rat heart = settings: pre-perfusion of rat heart; Kutala et al. 2006; cited from earlier work
[2] = SkQ1 250 nmol/kg body weight/day with food for three weeks, initial state

SMILES | RZ/LV (risk zone/weight of the left ventricle), difference between the groups (Wistar male rats; 250 nmol/kg body weight/day, three weeks, 40 min occlusion, 60 min reperfusion) | MI/RZ ratio (myocardial infarction/risk zone), times less as compared to the control (Wistar male rats; 250 nmol/kg body weight/day, three weeks, 40 min occlusion, 60 min reperfusion, P<0.005) | effect on blood pressure (Wistar male rats; [2]) | effect on heart rate (Wistar male rats; [2]) | normal rhythm maintained, % of the experiments ([1]; SkQ1 0.02 nmol/kg daily for 3 weeks) | normal rhythm maintained, % of the experiments ([1]; SkQ1 0.2 nmol/kg daily for 3 weeks) | number of hearts with documented normal rhythm ([1]; SkQ1 0.2 nmol/kg, 23 experiments) | normal rhythm maintained, % of the experiments ([1]; SkQ1 2.0 nmol/kg daily for 3 weeks) | reduction of infarct size caused by subsequent ischemia/reperfusion (rat heart)
CC1=C(C)C(=O)C(CCCCCCCCCC[P+](c2ccccc2)(c2ccccc2)c2ccccc2)=CC1=O [SkQ1] | no differences | 1.7 times | No effect | No effect | 55% | 70% | 16 hearts | 58% | 
CC1(C)CC(O)CC(C)(C)N1[O] [Tempol] |  |  |  |  |  |  |  |  | 1.5 times
